Test results taken from paper PMC6309939 (Pain, 2019).

Target: human α4β3δ GABAA receptor (β3 subunit) (Homo sapiens, UniProt P28472)
Assay: two-electrode voltage clamp in oocytes, potentiation of GABA EC10 currents
Format: cell-based

Sequence of human α4β3δ GABAA receptor (β3 subunit) (P28472 26-473): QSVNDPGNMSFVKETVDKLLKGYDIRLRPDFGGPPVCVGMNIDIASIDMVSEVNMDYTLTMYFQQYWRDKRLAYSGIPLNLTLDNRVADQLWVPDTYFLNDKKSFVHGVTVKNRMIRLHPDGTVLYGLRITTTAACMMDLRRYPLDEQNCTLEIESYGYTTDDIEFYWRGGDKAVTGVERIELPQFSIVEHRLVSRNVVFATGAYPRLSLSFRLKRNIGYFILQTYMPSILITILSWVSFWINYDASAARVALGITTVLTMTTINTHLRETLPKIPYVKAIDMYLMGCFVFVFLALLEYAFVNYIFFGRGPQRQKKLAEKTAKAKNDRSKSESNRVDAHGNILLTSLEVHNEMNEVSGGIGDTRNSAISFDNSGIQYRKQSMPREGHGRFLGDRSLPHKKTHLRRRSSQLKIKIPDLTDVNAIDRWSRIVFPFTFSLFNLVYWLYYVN
Sequence of human α4β3δ GABAA receptor (β3 subunit) (P48169 36-554 partner): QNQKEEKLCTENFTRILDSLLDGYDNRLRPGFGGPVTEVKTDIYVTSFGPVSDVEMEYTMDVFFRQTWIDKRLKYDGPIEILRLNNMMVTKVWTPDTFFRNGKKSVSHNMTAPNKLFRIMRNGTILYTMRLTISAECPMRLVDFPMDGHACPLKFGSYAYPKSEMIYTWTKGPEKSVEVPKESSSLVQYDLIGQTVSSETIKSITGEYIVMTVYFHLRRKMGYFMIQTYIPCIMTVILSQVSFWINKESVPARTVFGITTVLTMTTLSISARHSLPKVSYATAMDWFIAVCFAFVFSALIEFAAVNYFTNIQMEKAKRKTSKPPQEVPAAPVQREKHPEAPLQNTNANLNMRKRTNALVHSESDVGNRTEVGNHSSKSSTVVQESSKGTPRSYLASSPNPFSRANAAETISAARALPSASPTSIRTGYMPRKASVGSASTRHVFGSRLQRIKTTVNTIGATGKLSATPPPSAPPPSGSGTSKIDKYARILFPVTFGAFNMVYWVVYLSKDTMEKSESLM
Sequence of human α4β3δ GABAA receptor (β3 subunit) (O14764 25-452 partner): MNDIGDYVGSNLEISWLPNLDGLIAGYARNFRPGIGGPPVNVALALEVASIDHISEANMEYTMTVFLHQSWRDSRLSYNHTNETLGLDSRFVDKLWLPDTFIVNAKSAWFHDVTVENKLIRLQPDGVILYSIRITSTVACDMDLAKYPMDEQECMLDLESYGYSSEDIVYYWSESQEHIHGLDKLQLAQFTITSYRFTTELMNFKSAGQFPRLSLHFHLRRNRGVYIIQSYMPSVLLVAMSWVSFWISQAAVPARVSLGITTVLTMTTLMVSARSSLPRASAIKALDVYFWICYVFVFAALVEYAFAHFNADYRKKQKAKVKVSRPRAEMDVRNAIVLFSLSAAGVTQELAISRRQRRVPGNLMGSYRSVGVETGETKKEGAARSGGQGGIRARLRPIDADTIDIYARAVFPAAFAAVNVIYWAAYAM

Structure (SMILES): CC(=O)[C@H]1CC[C@H]2[C@@H]3CC[C@H]4C[C@H](O)CC[C@]4(C)[C@H]3CC[C@]12C [ALLO, allopregnanolone]
- EC50: 520 nM
